Measured values as given in ChEMBL document CHEMBL1671637, “Development, stability, and molecular mechanisms of macrolide resistance in Campylobacter jejuni” (2008).
Converted amounts (≈) assume the structure as drawn.

What was measured:
Campylobacter jejuni [1] = experiment: Antimicrobial activity against Campylobacter jejuni JL289 harboring 23S rRNA A2074C mutant selected at 4 to 16 times MIC after 3 to 4 days by agar dilution method; assay type: functional
Campylobacter jejuni [2] = experiment: Antimicrobial activity against Campylobacter jejuni DC4 by agar dilution method; assay type: functional
Campylobacter jejuni [3] = experiment: Antimicrobial activity against Campylobacter jejuni DC2 infected in 15 days old chicken by agar dilution method in presence of feed with tylosin; assay type: functional
Campylobacter jejuni [4] = experiment: Antimicrobial activity against Campylobacter jejuni JL302 harboring protein L22 with insertion of amino acid TSH at position 98 selected at 4 to 16 times MIC after 3 to 4 days by agar dilution method; assay type: functional
Campylobacter jejuni [5] = experiment: Antimicrobial activity against Campylobacter jejuni DC31 harboring 23S rRNA A2074G mutant by agar dilution method; assay type: functional
Campylobacter jejuni [6] = experiment: Antimicrobial activity against Campylobacter jejuni DC2 harboring protein L4 G74D mutant by agar dilution method; assay type: functional
Campylobacter jejuni [7] = experiment: Antimicrobial activity against Campylobacter jejuni DC19 harboring protein L4 G57D mutant by agar dilution method
Campylobacter jejuni [8] = experiment: Antimicrobial activity against Campylobacter jejuni DC29 by agar dilution method; assay type: functional
Campylobacter jejuni [9] = experiment: Antimicrobial activity against Campylobacter jejuni DC14 harboring protein L4 G57D mutant by agar dilution method
Campylobacter jejuni [10] = experiment: Antimicrobial activity against Campylobacter jejuni DC1 by agar dilution method; assay type: functional
Campylobacter jejuni [11] = experiment: Antimicrobial activity against Campylobacter jejuni DC17 harboring protein L4 G57D mutant by agar dilution method
Campylobacter jejuni [12] = experiment: Antimicrobial activity against Campylobacter jejuni DC7 harboring protein L4 G74D mutant by agar dilution method; assay type: functional
Campylobacter jejuni [13] = experiment: Antimicrobial activity against Campylobacter jejuni JL294 selected at 4 to 16 times MIC after 3 to 4 days by agar dilution method; assay type: functional
Campylobacter jejuni [14] = experiment: Antimicrobial activity against Campylobacter jejuni JL305 harboring protein L22 with insertion of amino acid TSH at position 98 selected at 4 to 16 times MIC after 3 to 4 days by agar dilution method; assay type: functional
Campylobacter jejuni [15] = experiment: Antimicrobial activity against Campylobacter jejuni JL291 harboring protein L22 with insertion of amino acid TSH at position 98 selected at 4 to 16 times MIC after 3 to 4 days by agar dilution method; assay type: functional
Campylobacter jejuni [16] = experiment: Antimicrobial activity against compound-resistant Campylobacter jejuni; assay type: functional
Campylobacter jejuni [17] = experiment: Antimicrobial activity against Campylobacter jejuni DC15 harboring protein L4 G74D mutant by agar dilution method; assay type: functional
Campylobacter jejuni [18] = experiment: Antimicrobial activity against Campylobacter jejuni JL276 selected at 4 ug/ml after 3 to 4 days by agar dilution method; assay type: functional
Campylobacter jejuni [19] = experiment: Antimicrobial activity against Campylobacter jejuni JL278 selected at 4 to 16 times MIC after 3 to 4 days by agar dilution method; assay type: functional
Campylobacter jejuni [20] = experiment: Antimicrobial activity against Campylobacter jejuni NCTC 11168 by agar dilution method; assay type: functional
Campylobacter jejuni [21] = experiment: Antimicrobial activity against Campylobacter jejuni DC21 harboring protein L4 G74D mutant by agar dilution method; assay type: functional
Campylobacter jejuni [22] = experiment: Antimicrobial activity against Campylobacter jejuni JL306 harboring protein L22 with insertion of amino acid TSH at position 98 selected at 4 to 16 times MIC after 3 to 4 days by agar dilution method; assay type: functional
Campylobacter jejuni [23] = experiment: Antimicrobial activity against Campylobacter jejuni DC38 harboring protein L4 G74D mutant by agar dilution method; assay type: functional
Campylobacter jejuni [24] = experiment: Antimicrobial activity against Campylobacter jejuni DC11 by agar dilution method; assay type: functional
Campylobacter jejuni [25] = experiment: Antimicrobial activity against Campylobacter jejuni DC26 infected in 15 days old chicken by agar dilution method in presence of food with tylosin; assay type: functional
Campylobacter jejuni [26] = experiment: Antimicrobial activity against Campylobacter jejuni DC25 harboring protein L4 G74D mutant by agar dilution method; assay type: functional
Campylobacter jejuni [27] = experiment: Antimicrobial activity against Campylobacter jejuni JL293 selected at 4 to 16 times MIC after 3 to 4 days by agar dilution method; assay type: functional
Campylobacter jejuni [28] = experiment: Antimicrobial activity against Campylobacter jejuni JL301 harboring protein L22 with insertion of amino acid TSH at position 98 selected at 4 to 16 times MIC after 3 to 4 days by agar dilution method; assay type: functional
Campylobacter jejuni [29] = experiment: Antimicrobial activity against Campylobacter jejuni DC8 harboring protein L4 G74D mutant by agar dilution method; assay type: functional
Campylobacter jejuni [30] = experiment: Antimicrobial activity against Campylobacter jejuni DC26 harboring protein L4 G74D mutant by agar dilution method; assay type: functional
Campylobacter jejuni [31] = experiment: Antimicrobial activity against Campylobacter jejuni JL299 harboring protein L22 with insertion of amino acid TSH at position 98 selected at 4 to 16 times MIC after 3 to 4 days by agar dilution method; assay type: functional
Campylobacter jejuni [32] = experiment: Antimicrobial activity against Campylobacter jejuni DC27 harboring protein L4 G74D mutant by agar dilution method; assay type: functional
Campylobacter jejuni [33] = experiment: Antimicrobial activity against Campylobacter jejuni DC24 harboring protein L4 G74D mutant by agar dilution method; assay type: functional
Campylobacter jejuni [34] = experiment: Antimicrobial activity against Campylobacter jejuni DC13 harboring protein L4 G74D mutant by agar dilution method; assay type: functional
Campylobacter jejuni [35] = experiment: Antimicrobial activity against Campylobacter jejuni DC28 harboring protein L4 G74D mutant by agar dilution method; assay type: functional
Campylobacter jejuni [36] = experiment: Antimicrobial activity against Campylobacter jejuni DC30 by agar dilution method; assay type: functional
Campylobacter jejuni [37] = experiment: Antimicrobial activity against Campylobacter jejuni DC6 infected in 3 days old chicken by agar dilution method; assay type: functional
Campylobacter jejuni [38] = experiment: Antimicrobial activity against Campylobacter jejuni DC37 harboring protein L4 G74D mutant by agar dilution method; assay type: functional

SMILES: CC[C@H]1OC(=O)[C@H](C)[C@@H](O[C@H]2C[C@@](C)(OC)[C@@H](O)[C@H](C)O2)[C@H](C)[C@@H](O[C@@H]2O[C@H](C)C[C@H](N(C)C)[C@H]2O)[C@](C)(O)C[C@@H](C)C(=O)[C@H](C)[C@@H](O)[C@]1(C)O [ERYTHROMYCIN]
- MIC (Campylobacter jejuni [1]): > 512 µg/mL
- MIC (Campylobacter jejuni [2]): 8 µg/mL (≈ 10.9 µM)
- MIC (Campylobacter jejuni [3]): 32 µg/mL
- MIC (Campylobacter jejuni [4]): 512 µg/mL (≈ 698 µM)
- MIC (Campylobacter jejuni [5]): > 512 µg/mL
- MIC (Campylobacter jejuni [6]): 32 µg/mL (≈ 43.6 µM)
- MIC (Campylobacter jejuni [7]): 16 µg/mL (≈ 21.8 µM)
- MIC (Campylobacter jejuni [8]): 4 µg/mL (≈ 5.45 µM)
- MIC (Campylobacter jejuni [9]): 32 µg/mL (≈ 43.6 µM)
- MIC (Campylobacter jejuni [10]): 8 µg/mL (≈ 10.9 µM)
- MIC (Campylobacter jejuni [11]): 8 µg/mL (≈ 10.9 µM)
- MIC (Campylobacter jejuni [12]): 8 µg/mL (≈ 10.9 µM)
- MIC (Campylobacter jejuni [13]): 8 µg/mL (≈ 10.9 µM)
- MIC (Campylobacter jejuni [14]): 256 µg/mL (≈ 349 µM)
- MIC (Campylobacter jejuni [15]): 32 µg/mL (≈ 43.6 µM)
- MIC (Campylobacter jejuni [16]): 8 µg/mL (≈ 10.9 µM)
- MIC (Campylobacter jejuni [17]): 32 µg/mL (≈ 43.6 µM)
- MIC (Campylobacter jejuni [18]): 16 µg/mL (≈ 21.8 µM)
- MIC (Campylobacter jejuni [19]): 8 µg/mL (≈ 10.9 µM)
- MIC (Campylobacter jejuni [20]): 1 µg/mL (≈ 1.36 µM)
- MIC (Campylobacter jejuni [21]): 32 µg/mL (≈ 43.6 µM)
- MIC (Campylobacter jejuni [22]): 64 µg/mL (≈ 87.2 µM)
- MIC (Campylobacter jejuni [23]): 128 µg/mL (≈ 174 µM)
- MIC (Campylobacter jejuni [24]): 64 µg/mL (≈ 87.2 µM)
- MIC (Campylobacter jejuni [25]): 64 µg/mL
- MIC (Campylobacter jejuni [26]): 64 µg/mL (≈ 87.2 µM)
- MIC (Campylobacter jejuni [27]): 8 µg/mL (≈ 10.9 µM)
- MIC (Campylobacter jejuni [28]): 512 µg/mL (≈ 698 µM)
- MIC (Campylobacter jejuni [29]): 32 µg/mL (≈ 43.6 µM)
- MIC (Campylobacter jejuni [30]): 64 µg/mL (≈ 87.2 µM)
- MIC (Campylobacter jejuni [31]): 64 µg/mL (≈ 87.2 µM)
- MIC (Campylobacter jejuni [32]): 64 µg/mL (≈ 87.2 µM)
- MIC (Campylobacter jejuni [33]): 32 µg/mL (≈ 43.6 µM)
- MIC (Campylobacter jejuni [34]): 32 µg/mL (≈ 43.6 µM)
- MIC (Campylobacter jejuni [35]): 8 µg/mL (≈ 10.9 µM)
- MIC (Campylobacter jejuni [36]): 1 µg/mL (≈ 1.36 µM)
- MIC (Campylobacter jejuni [37]): > 512 µg/mL
- MIC (Campylobacter jejuni [38]): 128 µg/mL (≈ 174 µM)
